Measurements from patent publication US10376520B2, “Methods for the treatment of cardiovascular disorders” (Galapagos NV, priority 2015, dated 2019).

Key:
Format in all cases: in vivo, human
RA patients [1] = assay: CRP analysis (immunoturbidimetric assay), Study 2; conditions: 50 mg q.d.
Experimental: Double-blind, placebo-controlled, monotherapy study in subjects with moderately to severely active RA who have an inadequate response to methotrexate (MTX) (oral or parenteral).
Twelve weeks of treatment with Compound 1 (dosed as a [Compound 1:HCl:3H2O]) at 50 mg, 100 mg, or 200 mg q.d.; or placebo. At Week 12, all subjects on placebo and the subjects on the 50 mg dose who have not achieved 20% improvement in swollen joint count (SJC66) and tender joint count (TJC68) will be assigned to 100 mg q.d. in a blinded fashion and will continue treatment until Week 24. Subjects in the other groups will maintain their randomized treatment until Week 24.
The determination of CRP is made using Immunoturbidimetric assay for the in vitro quantitative determination of CRP in human serum and plasma on Roche/Hitachi cobas c systems, wherein human CRP agglutinates with latex particles coated with monoclonal anti-CRP antibodies. The aggregates are determined turbidimetrically (Eda et al., 1998; Price et al., 1987).
Human serum and plasma samples [CRP] determination was done on a Roche/Hitachi Cobas c 301 c 501/502 system which automatically calculate the analyte concentration of each sample. Samples containing precipitates are centrifuged before performing the assay.
The Hommel-corrected p-value for the pairwise comparisons of each group with placebo is shown. […]

[2] = test system: Japanese and Caucasian healthy subjects; assay: Total cholesterol determination, Study 3 (healthy volunteers); conditions: for [Total cholesterol] % Mean % variation vs baseline 10 days: 200 mg q.d.; for [Total cholesterol] levels: Study 3
Experimental: Randomized, double-blind, placebo-controlled study for the assessment of safety, tolerability, pharmacokinetics, and pharmacodynamics, of multiple oral doses of Compound 1 (dosed as a [Compound 1:HCl:3H2O]) in Japanese and Caucasian healthy subjects.
Randomized, double-blind, placebo-controlled, single center, sequential design study.
Compound 1 (dosed as a [Compound 1:HCl:3H2O]) is administered for 10 days as oral film-coated tablet (25 and 100 mg and matching placebos). Placebo are provided as a matching tablet.
The study drug is ingested with 240 mL water after a standardized breakfast on Days 2-9. On PK days (Day 1 and Day 10) the study drug is administered in a fasted state (subjects will receive lunch 4 h after dosing on Day 1 and Day 10).
10 Japanese subjects (6 active, 4 placebo) and 10 Caucasian subjects (6 active, 4 placebo) will receive once daily an oral dose of 200 mg Compound 1 (dosed as a [Compound 1:HCl:3H2O]) or matching placebo as two tablets of 100 mg or matching placebo for 10 days. For practical reasons, these subjects may be split over separate groups, each group consisting of an equal number of Japanese and Caucasian Compound 1 (dosed as a [Compound 1:HCl:3H2O]) treated subjects and Japanese and Caucasian placebo subjects.
(§1) This method is based on the determination of Δ^4 cholestenone after enzymatic cleavage of the cholesterol ester by cholesterol esterase, conversion of cholesterol by cholesterol oxidase, and subsequent measurement by the Trinder reaction of the hydrogen peroxide formed (Allain et al., 1974).
(§2) Cholesterol esters are cleaved by the action of cholesterol esterase to yield free cholesterol and fatty acids. Cholesterol oxidase then catalyzes the oxidation of cholesterol to cholest-4-en-3-one and hydrogen peroxide. In the presence of peroxidase, the hydrogen peroxide formed effects the oxidative coupling of phenol and 4-aminophenazone to form a red quinone-imine dye. The color intensity of the dye formed is directly proportional to the cholesterol concentration. It is determined by measuring the increase in absorbance.
(§3) Human serum and plasma samples cholesterol determination was done on a Roche/Hitachi Cobas c 701/702 system which automatically calculate the analyte concentration of each sample.

RA patients [3] = assay: [HDL] cholesterol level (Selectra autoanalyzer), Study 4; conditions: for HDL level, 4 weeks CFB: 4 weeks change from baseline
Experimental: (§4) Randomized double-blind, placebo-controlled add on study in subjects with active RA who have an inadequate response to MTX monotherapy, in combination with methotrexate, administered for 4 weeks in the treatment of subjects with active rheumatoid arthritis who have an inadequate response to methotrexate alone.
(§5) Compound 1 (dosed as a [Compound 1:HCl:3H2O]) capsules administered orally in 30 mg, 75 mg, 150 mg, or 300 mg doses per day for 4 weeks.
Triglycerides, [HDL] cholesterol, and plasma cholesterol were measured on the Selectra autoanalyzer (Sopachem BV, 44-RI Straat 33, 4051 AP Ochten, The Netherlands). All assays were commercially available from DiaSys Diagnostic Systems GmbH, Alte Strasse 9, 65558 Holzheim, Germany.

RA patients [4] = assay: Total cholesterol determination, Study 4 (4 weeks study in RA patients with inadequate response to methotrexate); conditions: for [Total cholesterol] levels: Study 4
Description: Randomized, double-blind, placebo-controlled, multicenter, phase II study of Compound 1 (dosed as a [Compound 1:HCl:3H2O]) to compare four dose regimens versus placebo, in combination with methotrexate, administered for 4 weeks in the treatment of subjects with active rheumatoid arthritis who have an inadequate response to methotrexate alone.
as §4
90 subjects randomized to one of 4 dose regimens of Compound 1 (dosed as a [Compound 1:HCl:3H2O]) or placebo, on top of their stable dose of MTX. Thus, each of the 4 different doses of Compound 1 (dosed as a [Compound 1:HCl:3H2O]) and placebo groups has 18 subjects.
as §5, §1, §2, §3

SMILES: O=C(Nc1nc2cccc(-c3ccc(CN4CCS(=O)(=O)CC4)cc3)n2n1)C1CC1 [Compound 1, cyclopropanecarboxylic acid {5-[4-(1,1-dioxo-thiomorpholin-4-ylmethyl)-phenyl]-[1,2,4]triazolo[1,5-a]pyridin-2yl}-amide]
- CRP mean CFB (LOCF) (RA patients [1]; week 1): -3.70 mg/L
- CRP mean CFB (LOCF) (RA patients [1]; week 12): -4.43 mg/L
- [Total cholesterol] % Mean % variation vs baseline 10 days ([2]; Caucasian): −2.6%
- [Total cholesterol] % Mean % variation vs baseline 10 days ([2]; Japanese): −0.4%
- [Total cholesterol] levels ([2]; Caucasian 200 mg q.d. for 10 days, day 17): 4.57 mmol/L
- [Total cholesterol] levels ([2]; Caucasian 200 mg q.d., day 0): 4.77 mmol/L
- [Total cholesterol] levels ([2]; Caucasian 200 mg q.d., day 5): 4.5 mmol/L
- [Total cholesterol] levels ([2]; Caucasian 200 mg q.d., day 10): 4.53 mmol/L
- [Total cholesterol] levels ([2]; Japanese 200 mg q.d. for 10 days, day 17): 4.52 mmol/L
- [Total cholesterol] levels ([2]; Japanese 200 mg q.d., day 0): 4.47 mmol/L
- [Total cholesterol] levels ([2]; Japanese 200 mg q.d., day 5): 4.18 mmol/L
- [Total cholesterol] levels ([2]; Japanese 200 mg q.d., day 10): 4.45 mmol/L
- HDL level, 4 weeks CFB (RA patients [3]; 30 mg q.d.): 6.7%
- HDL level, Baseline (RA patients [3]; 30 mg q.d.): 0.9 mM
- HDL level, week 4 (RA patients [3]; 30 mg q.d.): 1 mM
- HDL level, 4 weeks CFB (RA patients [3]; 75 mg q.d.): 13.7%
- HDL level, Baseline (RA patients [3]; 75 mg q.d.): 1 mM
- HDL level, week 4 (RA patients [3]; 75 mg q.d.): 1.1 mM
- HDL level, 4 weeks CFB (RA patients [3]; 150 mg q.d.): 10.7%
- HDL level, Baseline (RA patients [3]; 150 mg q.d.): 1 mM
- HDL level, week 4 (RA patients [3]; 150 mg q.d.): 1.1 mM
- HDL level, 4 weeks CFB (RA patients [3]; 300 mg q.d.): 46.0%
- HDL level, Baseline (RA patients [3]; 300 mg q.d.): 1 mM
- HDL level, week 4 (RA patients [3]; 300 mg q.d.): 1.4 mM
- [Total cholesterol] % Mean % variation vs baseline after 4 weeks (RA patients [4]; 30 mg qd): 6%
- [Total cholesterol] % Mean % variation vs baseline after 4 weeks (RA patients [4]; 75 mg qd): 5%
- [Total cholesterol] % Mean % variation vs baseline after 4 weeks (RA patients [4]; 150 mg qd): 3%
- [Total cholesterol] % Mean % variation vs baseline after 4 weeks (RA patients [4]; 300 mg qd): 17%
- [Total cholesterol] levels (RA patients [4]; 30 mg q.d., baseline): 5.19 mmol/L
- [Total cholesterol] levels (RA patients [4]; 30 mg q.d., week 1): 5.31 mmol/L
- [Total cholesterol] levels (RA patients [4]; 30 mg q.d., week 2): 5.25 mmol/L
- [Total cholesterol] levels (RA patients [4]; 30 mg q.d., week 3): 5.32 mmol/L
- [Total cholesterol] levels (RA patients [4]; 30 mg q.d., week 4): 5.50 mmol/L
- [Total cholesterol] levels (RA patients [4]; 75 mg q.d., baseline): 4.99 mmol/L
- [Total cholesterol] levels (RA patients [4]; 75 mg q.d., week 1): 5.04 mmol/L
- [Total cholesterol] levels (RA patients [4]; 75 mg q.d., week 2): 5.07 mmol/L
- [Total cholesterol] levels (RA patients [4]; 75 mg q.d., week 3): 5.08 mmol/L
- [Total cholesterol] levels (RA patients [4]; 75 mg q.d., week 4): 5.18 mmol/L
- [Total cholesterol] levels (RA patients [4]; 150 mg q.d., baseline): 4.77 mmol/L
- [Total cholesterol] levels (RA patients [4]; 150 mg q.d., week 1): 4.94 mmol/L
- [Total cholesterol] levels (RA patients [4]; 150 mg q.d., week 2): 4.85 mmol/L
- [Total cholesterol] levels (RA patients [4]; 150 mg q.d., week 3): 4.89 mmol/L
- [Total cholesterol] levels (RA patients [4]; 150 mg q.d., week 4): 4.96 mmol/L
- [Total cholesterol] levels (RA patients [4]; 300 mg q.d., baseline): 4.56 mmol/L
- [Total cholesterol] levels (RA patients [4]; 300 mg q.d., week 1): 5.13 mmol/L
- [Total cholesterol] levels (RA patients [4]; 300 mg q.d., week 2): 5.21 mmol/L
- [Total cholesterol] levels (RA patients [4]; 300 mg q.d., week 3): 5.23 mmol/L
- [Total cholesterol] levels (RA patients [4]; 300 mg q.d., week 4): 5.33 mmol/L
